{
  "source": "a melting point compilation (Tetko et al.; mined from patent text by program, amines drawn as free bases though some values may be those of a salt)",
  "data": [
    {"units": {"melting point": "°C"}, "values": [
      {"compound": "CCOP(=O)(OCC)C(F)(F)c1ccc(NC(=O)CCc2oc(-n3cnc4ccccc43)nc2-c2ccc(Cl)cc2)cc1", "melting point": "155 to 156"},
      {"compound": "NC(=S)Nc1ccccc1-c1ccccc1F", "melting point": "175 to 177"},
      {"compound": "CCCCCCCCCCCCCCCCC[C@@H]1OC[C@@H](COCCCCCCCCOS(=O)(=O)c2ccc(C)cc2)O1", "note": "(relative stereo)", "melting point": "45.9 to 50.8"},
      {"compound": "O=C(O)CCc1nnc2c(=O)[nH]c3cc(C(F)(F)F)ccc3n12", "melting point": 333},
      {"compound": "COC(=O)Cc1cn(-c2ccccc2)nc1OCc1ccccc1", "melting point": "74 to 75"},
      {"compound": "CC1=C(C2C=CN(C(=O)OCC(Cl)(Cl)Cl)c3ccccc32)SCC(=O)N1", "note": "(stereo not given)", "melting point": "166 to 167"},
      {"compound": "O=C(O)c1nn(-c2ccc(Cl)cc2Cl)c(-c2ccc(Cl)cc2)c1COCCO", "melting point": 182},
      {"compound": "Cn1ncc2c(c1=O)C(Cc1ccccc1)NCCS2", "note": "(stereo not given)", "melting point": "112 to 114"},
      {"compound": "O=S(=O)(N[C@@H]1C[C@@H](/C=C\\CCCCO)N(S(=O)(=O)c2ccc(Cl)cc2)C1)c1ccc(Cl)cc1", "melting point": "108 to 109"},
      {"compound": "CC(C)=CCN1CCn2c(=O)[nH]c3cc(Cl)cc(c32)C1C", "note": "(stereo not given)", "melting point": 139},
      {"compound": "CCCCCCCCCC(=O)OCc1cccn2c(=O)c(CCN3CCC(N4Cc5ccc(F)cc5O4)CC3)c(C)nc12", "melting point": 112},
      {"compound": "CC(C)(C)OC(=O)N[C@H]1C=C[C@@H](C(=O)O)C1", "melting point": "153 to 155"},
      {"compound": "OCc1cccnc1N1CCN(c2nc3cc(C(F)(F)F)cc(Cl)c3[nH]2)CC1", "melting point": 252},
      {"compound": "Nc1ccc2c(c1)OC1(CC1)C2=O", "melting point": "188 to 189"},
      {"compound": "C=Cc1ccc(OCc2ccccc2)cc1", "melting point": "68 to 69"},
      {"compound": "CCn1nc(-c2ccccc2)c(C(C)=O)c(Nc2cccc3cn[nH]c23)c1=O", "melting point": "263 to 264"},
      {"compound": "O=C(NC(Cc1ccccc1[N+](=O)[O-])c1ccccc1)C1CCCCC1", "note": "(stereo not given)", "melting point": "210 to 212"},
      {"compound": "O=C(c1ccccc1)N1CCN(c2cncc(Cl)n2)CC1", "melting point": "104 to 105"},
      {"compound": "O=Cc1cc(Cl)c(F)cc1O", "melting point": "103 to 104"},
      {"compound": "CCCCCS(=O)(=O)NC(=O)CCCc1cc(OCCCC)nn1Cc1ccc(Cl)cc1Cl", "melting point": "121 to 122"},
      {"compound": "CN(c1ccc(Br)cc1)S(=O)(=O)c1cccc(C(=O)Nc2ccc(Cl)cc2F)c1", "melting point": "117 to 118"},
      {"compound": "CCc1ccc(N2CCN(c3c(C)c4c(c(OC)c3C)OC(C)(C)C4)CC2)cc1", "melting point": "157 to 160"},
      {"compound": "O=C(O)c1ccccc1CNC(=O)C1Cc2ccccc2N1S(=O)(=O)c1ccc(-c2cccc(C(F)(F)F)c2)cc1", "note": "(stereo not given)", "melting point": 118},
      {"compound": "CCOC(=O)c1cc(Cl)c(S(C)(=O)=O)c(-c2cc(C)no2)c1C", "melting point": "126 to 129"},
      {"compound": "Nc1cccc(CN2CCN(C(c3ccccc3)c3ccccc3)CC2)n1", "melting point": "144 to 145"},
      {"compound": "O=C1Nc2ccc(Oc3cc(F)c(C(F)(F)F)c(Cl)c3)cc2C12CC2", "melting point": "168 to 170"},
      {"compound": "O=c1c(Cl)c(Cl)cnn1C1OCCCC1Cl", "note": "(stereo not given)", "melting point": "109 to 110"},
      {"compound": "O=C(O)CNC(=O)c1ccc(-c2ccc3nnn(Cc4ccc5ncccc5c4)c3n2)cc1F", "melting point": "252 to 254"},
      {"compound": "O=C1COC(CCCOC(=O)c2ccccc2)(c2ccc(Cl)c(Cl)c2)CN1", "note": "(stereo not given)", "melting point": 92},
      {"compound": "CC(C)C[C@H](NC(=O)OC(C)(C)C)[C@@H](O)CC(=O)NN1CCN(c2cccc(C(F)(F)F)c2)CC1", "melting point": "107 to 109"},
      {"compound": "CCc1nc2c(N)nc3cc(-c4cnc5ccccc5c4)cnc3c2n1CC(C)(C)O", "melting point": "> 270"},
      {"compound": "O=c1ccn(-c2cccc(OC(F)F)c2)nc1-c1ccnn1-c1ccccc1", "melting point": "159 to 160"},
      {"compound": "Cn1c(CN2CCOCC2)nc([N+](=O)[O-])c1C#N", "melting point": "112 to 115"},
      {"compound": "C[C@@H](NS(=O)(=O)c1cccs1)c1cccc(C(=O)c2ccco2)c1", "melting point": "105 to 106"},
      {"compound": "CCCCOc1ccc(NC(=O)Nc2ccc(S(N)(=O)=O)cc2)cc1", "melting point": "236 to 239"},
      {"compound": "CC(C)c1ccc(-c2ccc(-c3ccccc3)s2)s1", "melting point": "104 to 106"},
      {"compound": "CCCCCCCCCCNS(=O)(=O)c1ccc(OC)cc1", "melting point": "53 to 54.5"},
      {"compound": "O=C(O)C1=Cc2cc(Cl)c(Oc3cccc(C(=O)O)c3)cc2OC1C(F)(F)F", "note": "(stereo not given)", "melting point": "288 to 289"},
      {"compound": "CCOC(=O)c1sc(-n2cn[nH]c2=O)nc1C", "melting point": "165 to 167"},
      {"compound": "CCC(=O)Oc1cc(-c2nc3cc(F)ccc3s2)ccc1OC", "melting point": 150},
      {"compound": "Cc1cc(Cn2nc(C(F)(F)C(F)(F)F)nc2C(F)(F)F)ccc1NC(=O)c1cccc(Cl)c1C(=O)NC(C)(C)C=NO", "melting point": "203 to 206"},
      {"compound": "O=C(NC1CC1)N1CCc2[nH]cnc2C1", "melting point": 215},
      {"compound": "O=[N+]([O-])c1ccc(N(CCO)CCO)cc1", "melting point": "102 to 104"},
      {"compound": "O=C(O)/C=C/c1ccc(OCCN2CCOCC2)cc1", "melting point": 228},
      {"compound": "Cn1c2ccc(-c3nnn[nH]3)cc2c(=O)c2cccnc21", "melting point": 321},
      {"compound": "O=S1C(c2ccccc2)CC2(CC1c1ccccc1)OCCO2", "note": "(stereo not given)", "melting point": "230 to 232"},
      {"compound": "COc1cc(CCC#N)c(Br)cc1OCc1ccccc1", "melting point": "52 to 53"},
      {"compound": "COC1OC(COCc2ccccc2)C(OCc2ccccc2)C(OCc2ccccc2)C1OCc1ccccc1", "note": "(stereo not given)", "melting point": "68 to 69"},
      {"compound": "CCC(O)C#Cc1ncn2c1CN(C)C(=O)c1c(Cl)cccc1-2", "note": "(stereo not given)", "melting point": 178},
      {"compound": "CSC1=NC2=NC3=C(CN2N1)C(Cc1ccccc1)CNC3=O", "note": "(stereo not given)", "melting point": "232 to 234"},
      {"compound": "O=CN1CCc2ccccc2CC1", "melting point": "65 to 66"},
      {"compound": "CC(=O)NCC1CN(c2ccc(N3CCN(c4nc5ccc([N+](=O)[O-])cc5s4)CC3)c(F)c2)C(=O)O1", "note": "(stereo not given)", "melting point": "216 to 217"},
      {"compound": "COc1cc(Nc2nccc(NC3CCN(Cc4ccccc4)CC3)n2)cc(OC)c1OC", "melting point": 136},
      {"compound": "Cc1nc(-c2cccc(F)c2)n(-c2ccc(S(N)(=O)=O)cn2)n1", "melting point": "195 to 196"},
      {"compound": "COc1ccccc1C(=O)Nc1nc2c(s1)CN(C)CC2", "melting point": "164 to 166"},
      {"compound": "O=S(=O)(CCCCl)NC1CC1", "melting point": "48 to 49.5"},
      {"compound": "COc1ccc2c3c(c(=O)oc2c1)CN(Cc1ccc(C(F)(F)F)cc1)CC3", "melting point": "203 to 206"},
      {"compound": "COc1ccc(-c2nc(C(F)F)oc2-c2ccc(OCCNC(N)=O)cc2)cc1", "melting point": "146 to 149"},
      {"compound": "Nc1nc(O)c2c(n1)NCC(CCC1CCC(N[C@@H](CCC(=O)O)C(=O)O)CC1)C2", "note": "(stereo not given in full)", "melting point": "210 to 225"},
      {"compound": "O=[N+]([O-])c1cnn(-c2c(Cl)cc(C(F)(F)F)c(Cl)c2Cl)c1Br", "melting point": "97 to 99"},
      {"compound": "Cn1cc(C2=C(c3c4n(c5ccccc35)CCC(CO)C4)C(=O)NC2=O)c2ccccc21", "note": "(stereo not given)", "melting point": "262 to 263"},
      {"compound": "Cc1sc2ncc(CO)n2c1C", "melting point": "166 to 167"},
      {"compound": "O=C1c2ccccc2C(=O)N1CCCC(=O)N1c2ccccc2N(Cc2ccccc2)C(=O)[C@H]2CCC[C@H]21", "note": "(relative stereo)", "melting point": "182 to 184"},
      {"compound": "CCCCC(=O)SCC(Cc1ccccc1)C(=O)Nc1cc(C)cc(C(=O)O)c1", "note": "(stereo not given)", "melting point": "151 to 153"},
      {"compound": "COc1cccc(C2(COc3cccc4cc(NS(=O)(=O)C(F)(F)F)ccc34)N=CNO2)c1", "note": "(stereo not given)", "melting point": "138 to 140"},
      {"compound": "CCOC(=O)c1cc(SC#N)c(Br)cc1N", "melting point": "149 to 150"},
      {"compound": "NC(=O)CN(CCCc1ccc(F)cc1)C1CCC(c2ccc3[nH]c(=O)oc3c2)CC1", "note": "(stereo not given)", "melting point": "266 to 270"},
      {"compound": "Brc1ccc(Nc2ncc(-c3ccccc3)s2)nc1", "melting point": "> 220"},
      {"compound": "Cc1ccc(-c2ccc3ccccc3c2C(=O)N(C)C)cc1", "melting point": "145 to 146"},
      {"compound": "CC[C@H]1[C@@H](O)[C@H](C)C(=O)N1c1ccc(C#N)c(C(F)(F)F)c1", "melting point": "113 to 119"}
    ]}
  ]
}
